Measurements published in patent publication US9051320B1, “Methods for the treatment of metabolic disorders by a selective small molecule autotaxin inhibitor” (PharmAkea, Inc., priority 2014, dated 2015).
Structures can show the parent of a compound that is named as a salt. Where two headings read alike, the source gives them in different places. Each block holds one molecule with its values, some of them ahead of it.

How the values were obtained:
[1] = tested on: mice fed a high fat diet (HFD); test: Glucose tolerance test in mice fed a high fat diet; assay type: in vivo, C57B16/J male mice; conditions: for baseline glucose (fasting blood glucose): sodium salt; for total blood glucose AUC: after i.p. 1 g/kg glucose
Method: C57B16/J male mice were fed a normal diet until 9-10 weeks of age. […] For determination of blood glucose, mice were administered test compound orally in 0.5% methocel once or twice daily for several days prior to the glucose challenge. Compounds were administered as a sodium salt. On the day of the glucose tolerance test (GTT) mice were fasted for 6-8 hours and a last dose of test compound administered orally 1-3 hours before the intraperitoneal (i.p.) injection of 1 g/kg D-glucose (Sigma). Blood from the tail vein was sampled before the glucose load (baseline glucose) and every 15-30 min over the next 120 min after the glucose challenge to monitor blood glucose concentration. Blood glucose was quantified using a glucose meter (Accu-Chek, Roche Diagnostics or AlphaTRAK, Abbott Animal Health) and plotted vs. time. Total blood glucose area under the curve (AUC) after the i.p. glucose challenge was calculated from the time plot using GraphPad Prism6.

human autotaxin (ATX) = target: T1, human autotaxin (ATX) (Homo sapiens, UniProt Q13822); test: Human autotaxin assay (choline release from LPC, Hep3B conditioned media); assay type: biochemical; conditions: LPC 14:0 100 uM
T1 construct: ATX activity is assayed in concentrated conditioned media from Hep3B human hepatocellular carcinoma cells; endogenous in cells; host or cells: Hep3B human hepatocellular carcinoma cells (20-fold concentrated conditioned medium)
Method: ATX activity is assayed in concentrated conditioned media from Hep3B human hepatocellular carcinoma cells by measuring the amount of choline released from the substrate, lysophosphatidylcholine (LPC) as it is cleaved to LPA. Conditioned media is collected from confluent Hep3B cells and concentrated 20-fold using Centriprep-30 filter devices (Millipore).

[2] = tested on: mice fed a normal diet or a high fat diet; conditions: cited from earlier work; for glucose tolerance: injection
[3] = 30 mg/kg oral twice daily for two days and once on the day of sampling
[4] = 30 mg/kg oral twice daily for two days prior to sampling and once on the day of sampling
[5] = chronic treatment, mice fed a high fat diet

Compound: Cc1c(Sc2cccc(C(=O)O)c2F)c2ccc(Cl)c(F)c2n1CC(=O)N1CCC(O)(C(F)(F)F)C1 (single isomer, unassigned) [Compound E]
baseline glucose (fasting blood glucose) ([1]; 30 mg/kg oral once daily for 5 days prior to sampling): decrease

IC50 (human autotaxin (ATX)): < 0.5 µM
Compound: CCn1cc(-n2c(C3CC3)c(Sc3cccc(C(=O)O)n3)c3ccc(Cl)c(F)c32)cn1 [Compound D, 6-((6-chloro-2-cyclopropyl-1-(1-ethyl-1H-pyrazol-4-yl)-7-fluoro-1H-indol-3-yl)thio)picolinic acid sodium salt]
total blood glucose AUC [1, 3]: decrease
baseline glucose (fasting blood glucose) [1, 4]: decrease

Compound: O=C(O)CCN1C(=O)[C@@H]2Cc3c(n(Cc4ccc(F)cc4)c4ccccc34)CN2C1=O [Compound A, (S)-3-(6-(4-fluorobenzyl)-1,3-dioxo-5,6,11,11a-tetrahydro-1H-imidazo [1′,5′:1,6]pyrido[3,4-b]indol-2(3H)-yl)propanoic acid]
total blood glucose AUC [1, 3]: decrease
baseline glucose (fasting blood glucose) [1, 4]: decrease

Compound: Cc1noc(-c2ccc(CSCCC(=O)O)cc2)c1NC(=O)OC(C)c1ccccc1Cl (centres unmarked) [Ki16425]
capacity of a muscle to oxidize glucose [2, 5]: increases
fasting insulin levels [2, 5]: improves
insulin sensitivity [2, 5]: improves
liver glycogen storage [2, 5]: increases
glucose tolerance ([2]; mice fed a high fat diet): does significantly improve
glucose tolerance ([2]; mice fed a normal diet): does not significantly improve

Compound: CCCn1cc(-n2c(Cl)c(Sc3cccc(C(=O)O)c3F)c3ccc(Cl)c(F)c32)cn1 [Compound C, 3-((2,6-dichloro-7-fluoro-1-(1-propyl-1H-pyrazol-4-yl)-1H-indol-3-yl)thio)-2-fluorobenzoic acid]
total blood glucose AUC ([1]; 15 mg/kg oral twice daily for two days and once on the day of sampling): decrease
baseline glucose (fasting blood glucose) ([1]; 15 mg/kg oral twice daily for two days prior to sampling and once on the day of sampling): decrease
